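All cell lines were grown in 96-well plates and treated with compound for 48 hours. GI50 marks 50% less growth. TGI marks complete inhibition of growth.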
What was measured:
Experiment in all cases: NCI anticancer screen, dose series, 48 h
A498 renal = system: A498 renal
A549 NSCLC = system: A549 NSCLC
ACHN renal = system: ACHN renal
BT-549 breast = system: BT-549 breast
CAKI-1 renal = system: CAKI-1 renal
CCRF-CEM leukemia = system: CCRF-CEM leukemia
EKVX NSCLC = system: EKVX NSCLC
HCC-2998 colon = system: HCC-2998 colon
HCT-116 colon = system: HCT-116 colon
HCT-15 colon = system: HCT-15 colon
HL-60(TB) leukemia = system: HL-60(TB) leukemia
HOP-62 NSCLC = system: HOP-62 NSCLC
HOP-92 NSCLC = system: HOP-92 NSCLC
HS 578T breast = system: HS 578T breast
IGROV1 ovarian = system: IGROV1 ovarian
K-562 leukemia = system: K-562 leukemia
MCF7 breast = system: MCF7 breast
MOLT-4 leukemia = system: MOLT-4 leukemia
NCI-H226 lung = system: NCI-H226 lung
NCI-H23 lung = system: NCI-H23 lung
NCI-H460 lung = system: NCI-H460 lung
NCI-H522 lung = system: NCI-H522 lung
OVCAR-3 ovarian = system: OVCAR-3 ovarian
OVCAR-8 ovarian = system: OVCAR-8 ovarian
PC-3 prostate = system: PC-3 prostate
RXF 393 renal = system: RXF 393 renal
SF-268 CNS = system: SF-268 CNS
SF-295 CNS = system: SF-295 CNS
SF-539 CNS = system: SF-539 CNS
SK-MEL-2 melanoma = system: SK-MEL-2 melanoma
SK-MEL-5 melanoma = system: SK-MEL-5 melanoma
SK-OV-3 ovarian = system: SK-OV-3 ovarian
SR leukemia = system: SR leukemia
T-47D breast = system: T-47D breast
U251 CNS = system: U251 CNS
UACC-62 melanoma = system: UACC-62 melanoma
786-0 renal = system: 786-0 renal
COLO 205 colon = system: COLO 205 colon
DU-145 prostate = system: DU-145 prostate
HT29 colon = system: HT29 colon
KM12 colon = system: KM12 colon
LOX IMVI melanoma = system: LOX IMVI melanoma
M14 melanoma = system: M14 melanoma
MALME-3M melanoma = system: MALME-3M melanoma
MDA-MB-231 breast = system: MDA-MB-231 breast
MDA-MB-435 = system: MDA-MB-435
NCI/ADR-RES ovarian = system: NCI/ADR-RES ovarian
OVCAR-4 ovarian = system: OVCAR-4 ovarian
OVCAR-5 ovarian = system: OVCAR-5 ovarian
RPMI-8226 leukemia = system: RPMI-8226 leukemia
SK-MEL-28 melanoma = system: SK-MEL-28 melanoma
SN12C renal = system: SN12C renal
SNB-19 CNS = system: SNB-19 CNS
SNB-75 CNS = system: SNB-75 CNS
SW-620 colon = system: SW-620 colon
TK-10 renal = system: TK-10 renal
UACC-257 melanoma = system: UACC-257 melanoma
UO-31 renal = system: UO-31 renal

COc1cc(/C=C/C(=O)c2ccc(Nc3nc(NCCO)nc(N4CCOCC4)n3)cc2)cc(OC)c1OC
GI50 (A498 renal): 1.32 µM | TGI (A498 renal): 5.01 µM | GI50 (A549 NSCLC): 2.18 µM | TGI (A549 NSCLC): > 100 µM | GI50 (ACHN renal): 1.95 µM | TGI (ACHN renal): 5.61 µM | GI50 (BT-549 breast): 1.35 µM | TGI (BT-549 breast): 2.86 µM | GI50 (CAKI-1 renal): 2.09 µM | TGI (CAKI-1 renal): 11 µM | GI50 (CCRF-CEM leukemia): 0.935 µM | TGI (CCRF-CEM leukemia): 3.54 µM | GI50 (EKVX NSCLC): 2.83 µM | TGI (EKVX NSCLC): > 100 µM | GI50 (HCC-2998 colon): 1.8 µM | TGI (HCC-2998 colon): 3.3 µM | GI50 (HCT-116 colon): 1.3 µM | TGI (HCT-116 colon): 3 µM | GI50 (HCT-15 colon): 1.43 µM | TGI (HCT-15 colon): 4.4 µM | GI50 (HL-60(TB) leukemia): 1.79 µM | TGI (HL-60(TB) leukemia): 4.78 µM | GI50 (HOP-62 NSCLC): 2.72 µM | TGI (HOP-62 NSCLC): 7.75 µM | GI50 (HOP-92 NSCLC): 1.61 µM | TGI (HOP-92 NSCLC): 7.4 µM | GI50 (HS 578T breast): 1.65 µM | TGI (HS 578T breast): 5.46 µM | GI50 (IGROV1 ovarian): 1.9 µM | TGI (IGROV1 ovarian): 4.59 µM | GI50 (K-562 leukemia): 0.783 µM | TGI (K-562 leukemia): 7.56 µM | GI50 (MCF7 breast): 1.17 µM | TGI (MCF7 breast): 2.77 µM | GI50 (MOLT-4 leukemia): 1.19 µM | TGI (MOLT-4 leukemia): 4.37 µM | GI50 (NCI-H226 lung): 2.15 µM | TGI (NCI-H226 lung): 5.18 µM | GI50 (NCI-H23 lung): 2.03 µM | TGI (NCI-H23 lung): 5.17 µM | GI50 (NCI-H460 lung): 1.58 µM | TGI (NCI-H460 lung): 3.47 µM | GI50 (NCI-H522 lung): 1.59 µM | TGI (NCI-H522 lung): 4.11 µM | GI50 (OVCAR-3 ovarian): 1.69 µM | TGI (OVCAR-3 ovarian): 4.26 µM | GI50 (OVCAR-8 ovarian): 2.2 µM | TGI (OVCAR-8 ovarian): > 100 µM | GI50 (PC-3 prostate): 2.14 µM | TGI (PC-3 prostate): 7.18 µM | GI50 (RXF 393 renal): 1.46 µM | TGI (RXF 393 renal): 3.23 µM | GI50 (SF-268 CNS): 1.88 µM | TGI (SF-268 CNS): 5.54 µM | GI50 (SF-295 CNS): 3.03 µM | TGI (SF-295 CNS): > 100 µM | GI50 (SF-539 CNS): 1.63 µM | TGI (SF-539 CNS): 3.16 µM | GI50 (SK-MEL-2 melanoma): 1.71 µM | TGI (SK-MEL-2 melanoma): 3.73 µM | GI50 (SK-MEL-5 melanoma): 1.76 µM | TGI (SK-MEL-5 melanoma): 3.28 µM | GI50 (SK-OV-3 ovarian): 3.05 µM | TGI (SK-OV-3 ovarian): 27.5 µM | GI50 (SR leukemia): 0.422 µM | TGI (SR leukemia): 3.22 µM | GI50 (T-47D breast): 1.8 µM | TGI (T-47D breast): 6.68 µM | GI50 (U251 CNS): 1.38 µM | TGI (U251 CNS): 2.97 µM | GI50 (UACC-62 melanoma): 1.54 µM | TGI (UACC-62 melanoma): 3.2 µM

COc1ccc2c(c1)/C(=N/OC(C)=O)c1c-2c(Nc2cccc(/C(C)=N/OC(C)=O)c2)nc2ccccc12
GI50 (786-0 renal): 37 µM | TGI (786-0 renal): > 100 µM | GI50 (A498 renal): 57.3 µM | TGI (A498 renal): > 100 µM | GI50 (A549 NSCLC): 31.1 µM | TGI (A549 NSCLC): > 100 µM | GI50 (ACHN renal): 21.4 µM | TGI (ACHN renal): 61 µM | GI50 (CAKI-1 renal): 27.3 µM | TGI (CAKI-1 renal): 55.9 µM | GI50 (CCRF-CEM leukemia): 84.6 µM | TGI (CCRF-CEM leukemia): > 100 µM | GI50 (COLO 205 colon): > 100 µM | TGI (COLO 205 colon): > 100 µM | GI50 (DU-145 prostate): 29.5 µM | TGI (DU-145 prostate): 85.6 µM | GI50 (EKVX NSCLC): 21.9 µM | TGI (EKVX NSCLC): 53.1 µM | GI50 (HCC-2998 colon): 70.8 µM | TGI (HCC-2998 colon): > 100 µM | GI50 (HCT-116 colon): 41.5 µM | TGI (HCT-116 colon): > 100 µM | GI50 (HCT-15 colon): > 100 µM | TGI (HCT-15 colon): > 100 µM | GI50 (HL-60(TB) leukemia): > 100 µM | TGI (HL-60(TB) leukemia): > 100 µM | GI50 (HOP-62 NSCLC): 37.6 µM | TGI (HOP-62 NSCLC): > 100 µM | GI50 (HS 578T breast): 40.3 µM | TGI (HS 578T breast): > 100 µM | GI50 (HT29 colon): > 100 µM | TGI (HT29 colon): > 100 µM | GI50 (IGROV1 ovarian): 47.5 µM | TGI (IGROV1 ovarian): > 100 µM | GI50 (K-562 leukemia): 37.9 µM | TGI (K-562 leukemia): > 100 µM | GI50 (KM12 colon): 48.9 µM | TGI (KM12 colon): > 100 µM | GI50 (LOX IMVI melanoma): 67.7 µM | TGI (LOX IMVI melanoma): > 100 µM | GI50 (M14 melanoma): > 100 µM | TGI (M14 melanoma): > 100 µM | GI50 (MALME-3M melanoma): 96.4 µM | TGI (MALME-3M melanoma): > 100 µM | GI50 (MCF7 breast): 85.1 µM | TGI (MCF7 breast): > 100 µM | GI50 (MDA-MB-231 breast): > 100 µM | TGI (MDA-MB-231 breast): > 100 µM | GI50 (MDA-MB-435): > 100 µM | TGI (MDA-MB-435): > 100 µM | GI50 (MOLT-4 leukemia): 25.8 µM | TGI (MOLT-4 leukemia): 62.6 µM | GI50 (NCI-H226 lung): 86.3 µM | TGI (NCI-H226 lung): > 100 µM | GI50 (NCI-H23 lung): 35 µM | TGI (NCI-H23 lung): > 100 µM | GI50 (NCI-H460 lung): 97.4 µM | TGI (NCI-H460 lung): > 100 µM | GI50 (NCI-H522 lung): 35 µM | TGI (NCI-H522 lung): > 100 µM | GI50 (NCI/ADR-RES ovarian): 55.3 µM | TGI (NCI/ADR-RES ovarian): > 100 µM | GI50 (OVCAR-3 ovarian): 56.5 µM | TGI (OVCAR-3 ovarian): > 100 µM | GI50 (OVCAR-4 ovarian): 86.6 µM | TGI (OVCAR-4 ovarian): > 100 µM | GI50 (OVCAR-5 ovarian): > 100 µM | TGI (OVCAR-5 ovarian): > 100 µM | GI50 (OVCAR-8 ovarian): 17 µM | TGI (OVCAR-8 ovarian): 58.4 µM | GI50 (PC-3 prostate): 21.1 µM | TGI (PC-3 prostate): 41.5 µM | GI50 (RPMI-8226 leukemia): 64.6 µM | TGI (RPMI-8226 leukemia): > 100 µM | GI50 (RXF 393 renal): 13.4 µM | TGI (RXF 393 renal): 40.7 µM | GI50 (SF-268 CNS): 39 µM | TGI (SF-268 CNS): > 100 µM | GI50 (SF-295 CNS): 29.9 µM | TGI (SF-295 CNS): > 100 µM | GI50 (SF-539 CNS): 63.9 µM | TGI (SF-539 CNS): > 100 µM | GI50 (SK-MEL-2 melanoma): 59.1 µM | TGI (SK-MEL-2 melanoma): > 100 µM | GI50 (SK-MEL-28 melanoma): > 100 µM | TGI (SK-MEL-28 melanoma): > 100 µM | GI50 (SK-MEL-5 melanoma): 60.2 µM | TGI (SK-MEL-5 melanoma): > 100 µM | GI50 (SK-OV-3 ovarian): > 100 µM | TGI (SK-OV-3 ovarian): > 100 µM | GI50 (SN12C renal): 48.8 µM | TGI (SN12C renal): > 100 µM | GI50 (SNB-19 CNS): 55.4 µM | TGI (SNB-19 CNS): > 100 µM | GI50 (SNB-75 CNS): 30.9 µM | TGI (SNB-75 CNS): 64.5 µM | GI50 (SR leukemia): 94.4 µM | TGI (SR leukemia): > 100 µM | GI50 (SW-620 colon): 47.5 µM | TGI (SW-620 colon): > 100 µM | GI50 (T-47D breast): 37.3 µM | TGI (T-47D breast): > 100 µM | GI50 (TK-10 renal): 77.6 µM | TGI (TK-10 renal): > 100 µM | GI50 (U251 CNS): 32.4 µM | TGI (U251 CNS): > 100 µM | GI50 (UACC-257 melanoma): 36.2 µM | TGI (UACC-257 melanoma): > 100 µM | GI50 (UACC-62 melanoma): > 100 µM | TGI (UACC-62 melanoma): > 100 µM | GI50 (UO-31 renal): > 100 µM | TGI (UO-31 renal): > 100 µM
